Read-outs that look alike come from different tables or passages of the source.
Key:
Alternaria solani = assay: Spore germination test; assay type: cell-based; conditions: AS, 48 hours
Method in brief: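 Compound in acetone was mixed into water agar at final 40, 10, 2.5 and 1 ppm and poured into quadrant dishes. Quadrants received spore suspension, while Erysiphe polygoni and Uromyces phaseoli spores were brushed on from infected leaves. After 48 h at 24 °C, the percentage of germinated spores was converted to a germination rating.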

Sclerotinia fructicola = assay: Mycelial growth test; assay type: cell-based; conditions: SF; for inhibition at 5 ppm / inhibition at 10 ppm / inhibition at 20 ppm / inhibition at 40 ppm: Sclerotinia, 72 h, read-out: Percent Fungus Growth Inhibition; for Percent Fungus Growth Inhibition: 72 hours
Text: | SF = Sclerotinia fructicola

Uromyces phaseoli [1] = assay: whole plant or invertebrate; conditions: foliar, read-out: Percent Disease Control, foliar, bean rust
Uromyces phaseoli [2] = assay: whole plant or invertebrate; conditions: foliar, 24 h, read-out: Percent Disease Control, curative, bean rust

Structure (SMILES): O=C(Nc1ccccc1)Nc1ccc(Oc2nsnc(Cl)c2=O)cc1 [Compound 29, 3-chloro-5-[4-(3-phenylureido)-phenoxy]-4H--1,2,6-thiadiazin-4-one]
- Spore Germination Rating (Alternaria solani; 1.0 ppm): 4 (80-100)
- Spore Germination Rating (Alternaria solani; 2.5 ppm): 4 (80-100)
- Spore Germination Rating (Alternaria solani; 10 ppm): 4 (80-100)
- Spore Germination Rating (Alternaria solani; 40 ppm): 4 (80-100)
- inhibition at 5 ppm (Sclerotinia fructicola; 5 ppm): 28%
- inhibition at 10 ppm (Sclerotinia fructicola; 10 ppm): 31%
- inhibition at 20 ppm (Sclerotinia fructicola): 0%
- inhibition at 40 ppm (Sclerotinia fructicola): 7%
- pest or weed control at 150 ppm (Uromyces phaseoli [1]): 0%
- pest or weed control at 150 ppm (Uromyces phaseoli [2]): 0%

Structure (SMILES): Cc1cccc(C)c1Oc1nsnc(Cl)c1=O [Compound 24, 3-chloro-5-(2,6-dimethylphenoxy)-4H--1,2,6-thiadiazin-4-one]
- Spore Germination Rating (Alternaria solani; 1.0 ppm): 1 (10-40)
- Spore Germination Rating (Alternaria solani; 2.5 ppm): 1 (10-40)
- Spore Germination Rating (Alternaria solani; 10 ppm): 0 (0-10)
- Spore Germination Rating (Alternaria solani; 40 ppm): 0 (0-10)
- inhibition at 5 ppm (Sclerotinia fructicola; 5 ppm): 100%
- inhibition at 10 ppm (Sclerotinia fructicola; 10 ppm): 100%
- inhibition at 20 ppm (Sclerotinia fructicola): 100%
- inhibition at 40 ppm (Sclerotinia fructicola): 100%
- pest or weed control at 150 ppm (Uromyces phaseoli [1]): 100%
- pest or weed control at 150 ppm (Uromyces phaseoli [2]): 0%

Structure (SMILES): O=C(O)c1ccc(Oc2nsnc(Cl)c2=O)cc1 [Compound 50, 3-(4-carboxyphenoxy)-5-chloro-4H--1,2,6-thiadiazin-4-one]
- Spore Germination Rating (Alternaria solani; 1.0 ppm): 4 (80-100)
- Spore Germination Rating (Alternaria solani; 2.5 ppm): 4 (80-100)
- Spore Germination Rating (Alternaria solani; 10 ppm): 4 (80-100)
- Spore Germination Rating (Alternaria solani; 40 ppm): 4 (80-100)
- inhibition at 5 ppm (Sclerotinia fructicola; 5 ppm): 59%
- inhibition at 10 ppm (Sclerotinia fructicola; 10 ppm): 47%
- inhibition at 20 ppm (Sclerotinia fructicola): 94%
- inhibition at 40 ppm (Sclerotinia fructicola): 100%
- pest or weed control at 150 ppm (Uromyces phaseoli [1]): 90%
- pest or weed control at 150 ppm (Uromyces phaseoli [2]): 0%

Structure (SMILES): COc1ccc(Cl)c(Oc2nsnc(Cl)c2=O)c1 [Compound 51, 3-chloro-5-[(2-chloro-5-methoxy)phenoxy]-4H--1,2,6-thiadiazin-4-one]
- Spore Germination Rating (Alternaria solani; 1.0 ppm): 4 (80-100)
- Spore Germination Rating (Alternaria solani; 2.5 ppm): 4 (80-100)
- Spore Germination Rating (Alternaria solani; 10 ppm): 1 (10-40)
- Spore Germination Rating (Alternaria solani; 40 ppm): 0 (0-10)
- inhibition at 5 ppm (Sclerotinia fructicola; 5 ppm): 69%
- inhibition at 10 ppm (Sclerotinia fructicola; 10 ppm): 92%
- inhibition at 20 ppm (Sclerotinia fructicola): 92%
- inhibition at 40 ppm (Sclerotinia fructicola): 100%
- pest or weed control at 150 ppm (Uromyces phaseoli [1]): 0%
- pest or weed control at 150 ppm (Uromyces phaseoli [2]): 0%

Structure (SMILES): O=c1c(Cl)nsnc1Oc1ccc(O)cc1 [Compound 35, 3-chloro-5-(4-hydroxyphenoxy)-4H-1,2,6-thiadiazin-4-one]
- Spore Germination Rating (Alternaria solani; 1.0 ppm): 4 (80-100)
- Spore Germination Rating (Alternaria solani; 2.5 ppm): 4 (80-100)
- Spore Germination Rating (Alternaria solani; 10 ppm): 3 (60-80)
- Spore Germination Rating (Alternaria solani; 40 ppm): 0 (0-10)
- inhibition at 5 ppm (Sclerotinia fructicola; 5 ppm): 8%
- inhibition at 10 ppm (Sclerotinia fructicola; 10 ppm): 27%
- inhibition at 20 ppm (Sclerotinia fructicola): 69%
- inhibition at 40 ppm (Sclerotinia fructicola): 100%
- pest or weed control at 150 ppm (Uromyces phaseoli [1]): 100%
- pest or weed control at 150 ppm (Uromyces phaseoli [2]): 0%

Structure (SMILES): Cc1cccc(Oc2nsnc(Cl)c2=O)c1 [Compound 21, 3-chloro-5-(3-methylphenoxy)-4H--1,2,6-thiadiazin-4-one]
- Spore Germination Rating (Alternaria solani; 1.0 ppm): 3 (60-80)
- Spore Germination Rating (Alternaria solani; 2.5 ppm): 1 (10-40)
- Spore Germination Rating (Alternaria solani; 10 ppm): 0 (0-10)
- Spore Germination Rating (Alternaria solani; 40 ppm): 0 (0-10)
- inhibition at 5 ppm (Sclerotinia fructicola; 5 ppm): 100%
- inhibition at 10 ppm (Sclerotinia fructicola; 10 ppm): 100%
- inhibition at 20 ppm (Sclerotinia fructicola): 100%
- inhibition at 40 ppm (Sclerotinia fructicola): 100%
- pest or weed control at 150 ppm (Uromyces phaseoli [1]): 100%
- pest or weed control at 150 ppm (Uromyces phaseoli [2]): 0%

Structure (SMILES): O=c1c(Cl)nsnc1Oc1ccc(Cl)cc1 [Compound 12, 3-chloro-5-(4-chlorophenoxy)-4H--1,2,6-thiadiazin-4-one]
- Spore Germination Rating (Alternaria solani; 1.0 ppm): 3 (60-80)
- Spore Germination Rating (Alternaria solani; 2.5 ppm): 1 (10-40)
- Spore Germination Rating (Alternaria solani; 10 ppm): 1 (10-40)
- Spore Germination Rating (Alternaria solani; 40 ppm): 0 (0-10)
- inhibition at 5 ppm (Sclerotinia fructicola; 5 ppm): 64%
- inhibition at 10 ppm (Sclerotinia fructicola; 10 ppm): 82%
- inhibition at 20 ppm (Sclerotinia fructicola): 100%
- inhibition at 40 ppm (Sclerotinia fructicola): 100%
- pest or weed control at 150 ppm (Uromyces phaseoli [1]): 100%
- pest or weed control at 150 ppm (Uromyces phaseoli [2]): 0%

Structure (SMILES): CC(=O)c1cccc(Oc2nsnc(Cl)c2=O)c1 [Compound 48, 3-(3-acetylphenoxy)-5-chloro-4H--1,2,6-thiadiazin-4-one]
- Spore Germination Rating (Alternaria solani; 1.0 ppm): 4 (80-100)
- Spore Germination Rating (Alternaria solani; 2.5 ppm): 3 (60-80)
- Spore Germination Rating (Alternaria solani; 10 ppm): 0 (0-10)
- Spore Germination Rating (Alternaria solani; 40 ppm): 0 (0-10)
- inhibition at 5 ppm (Sclerotinia fructicola; 5 ppm): 82%
- inhibition at 10 ppm (Sclerotinia fructicola; 10 ppm): 88%
- inhibition at 20 ppm (Sclerotinia fructicola): 94%
- inhibition at 40 ppm (Sclerotinia fructicola): 100%
- pest or weed control at 150 ppm (Uromyces phaseoli [1]): 100%
- pest or weed control at 150 ppm (Uromyces phaseoli [2]): 0%

Structure (SMILES): CC(=O)c1ccccc1Oc1nsnc(Cl)c1=O [Compound 49, 3-(2-acetylphenoxy)-5-chloro-4H--1,2,6-thiadiazin-4-one]
- Spore Germination Rating (Alternaria solani; 1.0 ppm): 4 (80-100)
- Spore Germination Rating (Alternaria solani; 2.5 ppm): 3 (60-80)
- Spore Germination Rating (Alternaria solani; 10 ppm): 2 (40-60)
- Spore Germination Rating (Alternaria solani; 40 ppm): 0 (0-10)
- inhibition at 5 ppm (Sclerotinia fructicola; 5 ppm): 14%
- inhibition at 10 ppm (Sclerotinia fructicola; 10 ppm): 33%
- inhibition at 20 ppm (Sclerotinia fructicola): 75%
- inhibition at 40 ppm (Sclerotinia fructicola): 100%
- pest or weed control at 150 ppm (Uromyces phaseoli [1]): 100%
- pest or weed control at 150 ppm (Uromyces phaseoli [2]): 0%

Structure (SMILES): Cc1ccc(Oc2nsnc(Cl)c2=O)c(Br)c1 [Compound 57, 3-[(2-bromo-4-methyl)-phenoxy]-5-chloro-4H--1,2,6-thiadiazin-4-one]
- Spore Germination Rating (Alternaria solani; 1.0 ppm): 4 (80-100)
- Spore Germination Rating (Alternaria solani; 2.5 ppm): 2 (40-60)
- Spore Germination Rating (Alternaria solani; 10 ppm): 0 (0-10)
- Spore Germination Rating (Alternaria solani; 40 ppm): 0 (0-10)
- inhibition at 5 ppm (Sclerotinia fructicola; 5 ppm): 68%
- inhibition at 10 ppm (Sclerotinia fructicola; 10 ppm): 82%
- inhibition at 20 ppm (Sclerotinia fructicola): 100%
- inhibition at 40 ppm (Sclerotinia fructicola): 100%
- pest or weed control at 150 ppm (Uromyces phaseoli [1]): 100%
- pest or weed control at 150 ppm (Uromyces phaseoli [2]): 0%

Structure (SMILES): Cc1cc(Oc2nsnc(Cl)c2=O)cc(C)c1Br [Compound 60, 3-[(4-bromo-3,5-dimethyl)-phenoxy]-5-chloro-4H--1,2,6-thiadiazin-4-one]
- Spore Germination Rating (Alternaria solani; 1.0 ppm): 4 (80-100)
- Spore Germination Rating (Alternaria solani; 2.5 ppm): 4 (80-100)
- Spore Germination Rating (Alternaria solani; 10 ppm): 4 (80-100)
- Spore Germination Rating (Alternaria solani; 40 ppm): 3 (60-80)
- inhibition at 5 ppm (Sclerotinia fructicola; 5 ppm): 56%
- inhibition at 10 ppm (Sclerotinia fructicola; 10 ppm): 71%
- inhibition at 20 ppm (Sclerotinia fructicola): 65%
- inhibition at 40 ppm (Sclerotinia fructicola): 71%
- pest or weed control at 150 ppm (Uromyces phaseoli [1]): 100%
- pest or weed control at 150 ppm (Uromyces phaseoli [2]): 0%

Structure (SMILES): Nc1ccc(Oc2nsnc(Cl)c2=O)cc1 [Compound 26, 5-(4-aminophenoxy)-3-chloro-4H--1,2,6-thiadiazin-4-one]
- Spore Germination Rating (Alternaria solani; 1.0 ppm): 4 (80-100)
- Spore Germination Rating (Alternaria solani; 2.5 ppm): 3 (60-80)
- Spore Germination Rating (Alternaria solani; 10 ppm): 0 (0-10)
- Spore Germination Rating (Alternaria solani; 40 ppm): 0 (0-10)
- Percent Fungus Growth Inhibition (Sclerotinia fructicola; 5 ppm): 17%
- Percent Fungus Growth Inhibition (Sclerotinia fructicola; 10 ppm): 66%
- inhibition at 40 ppm (Sclerotinia fructicola): 100%
- pest or weed control at 150 ppm (Uromyces phaseoli [1]): 0%
- pest or weed control at 150 ppm (Uromyces phaseoli [2]): 0%

Structure (SMILES): O=c1c(Cl)nsnc1Oc1c(Cl)c(Cl)c(Cl)c(Cl)c1Cl [Compound 31, 3-chloro-5-(pentachlorophenoxy)-4H--1,2,6-thiadiazine-4-one]
- Spore Germination Rating (Alternaria solani; 1.0 ppm): 4 (80-100)
- Spore Germination Rating (Alternaria solani; 2.5 ppm): 1 (10-40)
- Spore Germination Rating (Alternaria solani; 10 ppm): 0 (0-10)
- Spore Germination Rating (Alternaria solani; 40 ppm): 0 (0-10)
- inhibition at 5 ppm (Sclerotinia fructicola; 5 ppm): 55%
- inhibition at 10 ppm (Sclerotinia fructicola; 10 ppm): 52%
- inhibition at 20 ppm (Sclerotinia fructicola): 72%
- inhibition at 40 ppm (Sclerotinia fructicola): 52%
- pest or weed control at 150 ppm (Uromyces phaseoli [1]): 0%
- pest or weed control at 150 ppm (Uromyces phaseoli [2]): 0%

Structure (SMILES): O=c1c(Cl)nsnc1Oc1ccc(Br)cc1 [Compound 15, 3-chloro-5-(4-bromophenoxy)-4H--1,2,6-thiadiazin-4-one]
- Spore Germination Rating (Alternaria solani; 1.0 ppm): 4 (80-100)
- Spore Germination Rating (Alternaria solani; 2.5 ppm): 1 (10-40)
- Spore Germination Rating (Alternaria solani; 10 ppm): 0 (0-10)
- Spore Germination Rating (Alternaria solani; 40 ppm): 0 (0-10)
- inhibition at 5 ppm (Sclerotinia fructicola; 5 ppm): 92%
- inhibition at 10 ppm (Sclerotinia fructicola; 10 ppm): 83%
- inhibition at 20 ppm (Sclerotinia fructicola): 83%
- inhibition at 40 ppm (Sclerotinia fructicola): 88%
- pest or weed control at 150 ppm (Uromyces phaseoli [1]): 100%
- pest or weed control at 150 ppm (Uromyces phaseoli [2]): 90%
